Test results from patent US9468225B2, “Oral compositions” (Symrise AG, priority 2013, dated 2016).

Columns and labels:
[1] = test system: human neuroblastoma cells (SH-SY5Y); experiment: Serotonin release by SH-SY5Y cells after 3-minute stimulation with alkamides (Serotonin-ELISA, normalized to DNA); assay type: cell-based; details: for Serotonin release T/C [%]: relative to EtOH control, 3 min stimulation
Description: (§1) The cell model used for the release of the neurotransmitters dopamine and serotonin are human neuroblastoma cells (SH-SY5Y, ATCC Number CRL-2266). Cultivation is performed at 37° C. and with a 5% CO2 content using a mixture containing at equal parts Eagle's Minimum Essential Medium (MEM) and F12 Medium (each having 10% FBS and 1% Penicillin/Streptomycin). To measure the release of dopamine and serotonin, the cells are harvested with trypsin and seeded, after a vitality check using trypan blue tests, in a defined cell number in 35 mm cell culture dishes.
After a 3-minute stimulation of 1.25*10^6 human neuroblastoma cells (SH-SY5Y) with 300 μL Krebs-Ringer-HEPES buffer, 0.1% ascorbic acid, pH 6.2, with, or without, the addition of an alkamide (trans-Pellitorine, dihydropellitorine, spilanthol, wherein when adding the alkamide in concentrations of 0.001 μM, 0.1 μM 1 μM and 10 μM within the Krebs-Ringer-HEPES buffer is adjusted), the serotonin content is detected by means of an enzyme-based method of detection (Serotonin-ELISA sensitive, DLD Diagnostica, Hamburg, Germany). The cells are lysed with a buffer containing sodium lauryl sarcosinate and the DNA content is detected by means of a NanoQuant plate (Tecan, Ménnendorf, Switzerland) to normalize serotonin release.
FIGS. 1a and 1b represent the release of serotonin after incubation with t-pellitorine (2) (FIG. 1A) in concentrations of 0.001 μM, 0.1 μM, 1 μM and 10 μM or other alkamides (FIG. 1B: 1=t-pellitorine, 2=dihydropellitorine, 3=spilanthol)). Results are represented in % relative to control (buffer with 0.1% ethanol) n=3, tR=2. Significant differences of control treatment were tested using a one-way ANOVA with a subsequent Holm-Sidak post hoc test and marked according to the following pattern: *p≦0.05; **p.≦0.01; ***p≦0.001.

3T3-L1 cells [2] = experiment: Long time lipid accumulation (Oil-Red O) in 3T3-L1 adipocytes; assay type: cell-based, murine; details: 10 days treatment, vs ethanol control
Description: The cell model used for short-term uptake of free fatty acids and long-term lipid accumulation in the adipocytes are murine fibroblasts (3T3-L1, ATTC Number CL-173) after the cells differentiated to form adipocytes. 3T3-L1 fibroblasts are cultivated at 37° C. and a 5% CO2 content with Dulbecco's Modified Eagle Medium (DMEM) having 10% FBS, 4% L-Glutamin and 1% Penicillin/Streptomycin (=basal medium). Adipocyte differentiation occurs two days after reaching confluence by adding 10 μg/L Insulin, 1 μM dexamethasone and 0.5 mM Isobutylmethylxanthin into the culture medium (=differentiation medium). After two days of cultivation in differentiation medium the adipocytes are allowed to mature for two further days by adding 10 μg/L insulin into the culture medium (=maturation medium). After having spent between three and five days in basal medium, the adipocytes are optimally differentiated and show by inclusion of lipid droplets the phenotype that is typical for adipocytes. Human colon cell line CaCo-2 (ATCC Number HTB-37) is used as a cell model for the uptake of free fatty acids by the small intestine after they have differentiated to form a phenotype corresponding to enterocytes. CaCo-2 cells are cultivated at 37° C. with a 5% CO2 content with Dulbecco's Modified Eagle Medium (DMEM) with 10% FBS, 2% L-glutamin and 1% penicillin/streptomycin. Enterocyte differentiation is performed by cultivating the cells in a period of 18 days after they reach confluence. After differentiation of the 3T3-L1 fibroblasts to form adipocytes the cells are treated for 10 days with trans-pellitorine in concentrations of 0.001 μM, μM 0.1 μM, 1 μM and 10 μM and a final concentration of 10 μg/L insulin. […] The dye Oil-Red 0 is subsequently removed by means of 100% isopropanol, and absorption of the Oil-Red 0 solution, which behaves proportionally to the lipid droplets of the cells, was determined by means of a microplate reading device (Tecan, Ménnendorf, Switzerland). […]

3T3-L1 cells [3] = experiment: Fatty acid uptake (BODIPY fatty acid) in 3T3-L1 adipocytes; assay type: cell-based, murine; details: for Fatty acid uptake T/C [%]: 30 min preincubation, area below the curve over 60 min vs ethanol control
Description: (§2) The cell model used for short-term uptake of free fatty acids and long-term lipid accumulation in the adipocytes are murine fibroblasts (3T3-L1, ATTC Number CL-173) after the cells differentiated to form adipocytes. 3T3-L1 fibroblasts are cultivated at 37° C. and a 5% CO2 content with Dulbecco's Modified Eagle Medium (DMEM) having 10% FBS, 4% L-Glutamin and 1% Penicillin/Streptomycin (=basal medium). Adipocyte differentiation occurs two days after reaching confluence by adding 10 μg/L Insulin, 1 μM dexamethasone and 0.5 mM Isobutylmethylxanthin into the culture medium (=differentiation medium). After two days of cultivation in differentiation medium the adipocytes are allowed to mature for two further days by adding 10 μg/L insulin into the culture medium (=maturation medium). After having spent between three and five days in basal medium, the adipocytes are optimally differentiated and show by inclusion of lipid droplets the phenotype that is typical for adipocytes. Human colon cell line CaCo-2 (ATCC Number HTB-37) is used as a cell model for the uptake of free fatty acids by the small intestine after they have differentiated to form a phenotype corresponding to enterocytes. CaCo-2 cells are cultivated at 37° C. with a 5% CO2 content with Dulbecco's Modified Eagle Medium (DMEM) with 10% FBS, 2% L-glutamin and 1% penicillin/streptomycin. Enterocyte differentiation is performed by cultivating the cells in a period of 18 days after they reach confluence.
After differentiation of 3T3-L1 fibroblasts to form adipocytes, 65000 cells per well are seeded in a 96 well plate and incubated at 37° C. for four hours with basal medium (DMEM+10% fetal bovine serum) and then incubated for an hour with serum-free medium. The cells were pre-treated with 0.1 μM, 1 μM and 10 μM t-pellitorine for 30 minutes. The uptake of free fatty acids into the cells was measured by means of the fluorescence-marked fatty acid BODIPY® (QBT Fatty Acid Uptake Corporation, Germany) with a fluorescence microplate reading device (Tecan, Ménnendorf, Switzerland) every 20 seconds for a period of 60 minutes.
The results are represented as an area below the curve after measuring of 60 minutes in comparison with control (1, buffer with 0.1% Ethanol). n=3, tR=2-3. Significant differences between the treatment and control were tested by means of an one-way ANOVA followed by a Holm-Sidak post hoc test and marked according to the following pattern: *p≦0.05; **p.≦0.01; ***p≦0.001

[4] = test system: differentiated CaCo-2 cells; experiment: Fatty acid uptake (BODIPY fatty acid) in differentiated CaCo-2 cells; assay type: cell-based, human; details: for Fatty acid uptake T/C [%]: 30 min preincubation, area below the curve over 60 min vs ethanol control
Description: as §2, with “confluence. After differentiation of the CaCo-2 cells to form an enterocyte phenotype, the cells are incubated with serum-free medium for an hour. Subsequently the cells are pre-treated with 0.1 μM, 1 μM and 10 μM t-pellitorine for 30 minutes and the free fatty acid uptake into the cells was measured by means of the fluorescence marked fatty acid BODIPY® (QBT Fatty Acid Up-take Corporation, Germany) at a fluorescence microplate reading device (Tecan, Ménnendorf, Switzerland) every 20 seconds for a period of 60 minutes. […] The results are represented as an area below the curve after measuring for 60 minutes in comparison to control (1, buffer with 0.1% ethanol). n=3, tR=2-3. Significant differences between the treatment and control were tested by means of a one-way ANOVA followed by a Holm-Sidak post hoc test and marked according to the following pattern: *p≦0.05; **p.≦0.01; ***p≦0.001” for “confluence.”

[5] = test system: human neuroblastoma cells (SH-SY5Y); experiment: Dopamine release by SH-SY5Y cells after 3-minute stimulation with trans-pellitorine (Dopamin-ELISA, normalized to DNA); assay type: cell-based; details: for Dopamine release T/C [%]: relative to EtOH control, 3 min stimulation
Description: as §1
After a 3-minute stimulation of 1.25*10^6 of human neuroblastoma cells (SH-SY5Y) with 350 μL Krebs-Ringer-HEPES Puffer (1), pH 5, with or without the addition of trans-pellitorine (2) in concentrations of 0.001 μM, 0.1 μM, 1 μM and 10 μM the supernatant is acidified with 1 N HCl and the dopamine content is determined by means of an enzyme-based method of detection (Dopamin-ELISA, DLD Diagnostica, Hamburg, Germany). The cells are lysed with a buffer containing sodium lauryl sarcosinate and the DNAN content is determined by means of a NanoQuant plant (Tecan, Ménnendorf, Switzerland) for normalization of dopamine release. During an ethanol control (EtOH control) no trans-pellitorine is added to the Krebs-Ringer-HEPES buffer, but ethanol is added to the buffer such that a 0.1% ethanolic Krebs-Ringer-HEPES buffer solution is obtained.
FIG. 2 represents the release of dopamin after incubation with t-pellitorine (2) in concentrations of 0.001 μM, 0.1 μM, 1 μM and 10 μM. The results are represented in a […] expressed in percent (buffer with 0.1% ethanol). n=3, tR=2. Significant differences between the treatments and control were tested using a one-way ANOVA with a subsequent Holm-Sidak post hoc test and marked according to the following pattern: *p≦0.05; **p.≦0.01; ***p≦0.001.

CCCCCCC/C=C/C(=O)NCC(C)C [Dihydropellitorine, 2E-decenoic acid-N-isobutylamide]
Serotonin release T/C [%] ([1]; 0.001 μM): 140.9%
Serotonin release T/C [%] ([1]; 0.1 μM): 87.41%
Serotonin release T/C [%] ([1]; 1 μM): 124.3%
Serotonin release T/C [%] ([1]; 10 μM): 144.5%

C/C=C/C=C\CC/C=C/C(=O)NCC(C)C [Spilanthol, 2E,6Z,8E-decatrienoic acid N-isobutylamide]
Serotonin release T/C [%] ([1]; 0.001 μM): 105.6%
Serotonin release T/C [%] ([1]; 0.1 μM): 129.9%
Serotonin release T/C [%] ([1]; 1 μM): 103.8%
Serotonin release T/C [%] ([1]; 10 μM): 91.77%

CCCCC/C=C/C=C/C(=O)NCC(C)C [trans-pellitorine, 2E,4E-decadienic acid-N-isobutylamide]
Lipid accumulation T/C [%] (3T3-L1 cells [2]; 0.001 μM): 94.60%
Lipid accumulation T/C [%] (3T3-L1 cells [2]; 0.1 μM): 92.94%
Lipid accumulation T/C [%] (3T3-L1 cells [2]; 1 μM): 93.46%
Serotonin release T/C [%] ([1]; 0.001 μM): 105.3%
Serotonin release T/C [%] ([1]; 0.1 μM): 140.2%
increase of the release of serotonin ([1]; 100 nM, SH-SY5Y cells): 40%
Serotonin release T/C [%] ([1]; 1 μM): 128.8%
Serotonin release T/C [%] ([1]; 10 μM): 93.02%
Fatty acid uptake T/C [%] (3T3-L1 cells [3]; 0.1 μM): 93.84%
Fatty acid uptake T/C [%] (3T3-L1 cells [3]; 1 μM): 96.63%
Fatty acid uptake T/C [%] (3T3-L1 cells [3]; 10 μM): 91.95%
reduction of fatty acid uptake in adipocytes (3T3-L1 cells [3]; preincubation with 10 μM): 9%
Fatty acid uptake T/C [%] ([4]; 0.1 μM): 107.8%
Fatty acid uptake T/C [%] ([4]; 1 μM): 98.7%
Fatty acid uptake T/C [%] ([4]; 10 μM): 97.8%
Fatty acid uptake T/C [%] ([4]; 100 μM): 86.0%
reduction of free fatty acid uptake in an enterocyte model ([4]; preincubation with 100 μM, 30 minutes): 14%
Dopamine release T/C [%] ([5]; 0.001 μM): 99.68%
Dopamine release T/C [%] ([5]; 0.1 μM): 182.7%
increase of dopamine release ([5]; 100 nM, SH-SY5Y cells): 80%
Dopamine release T/C [%] ([5]; 1 μM): 106.8%
Dopamine release T/C [%] ([5]; 10 μM): 127.3%
